Measured values reported in patent publication US7459477B2, “Substituted N-phenyl-phenoxy nicotinic acid-(thio)amides and their use as herbicides” (Nihon Nohyaku, Co., Ltd., priority 2001, dated 2008).

Key:
Type in all cases: in vivo
[1] = system: Green Peach Aphid (Myzus Persicae); test: Insecticidal effect on green peach aphid (Test Example 4); conditions: 500 ppm; stems and leaves of Chinese cabbage sprayed; six days after the spraying; greenhouse
Source text: Insecticidal Effect on Green Peach Aphid (Myzus Persicae)
A Chinese cabbage plant was planted in each of plastic pots with a diameter of 8 cm and a height of 8 cm, and green peach aphids were propagated on the plant. Then, the stems and leaves were sufficiently sprayed with a liquid chemical prepared by diluting a preparation containing each compound listed in Tables 1 to 4 as an active ingredient to adjust the concentration to 500 ppm. After air-drying, the pots were allowed to stand in a greenhouse. Six days after the spraying, green peach aphids parasitic on each Chinese cabbage plant were counted and the control efficacy was calculated, whereby the […] effect was judged according to the criterion shown below. Control efficacy (%)=100−[(T×Ca)/(Ta×C)]×100 • Ta: number of parasites before spraying in treated group, • T: number of parasites after spraying in treated group,
Ca: number of parasites before spraying in untreated group, • […]: number of parasites after spraying in untreated group. Criterion for Judgment: • A: control efficacy 100% • B: control efficacy 99 to 90% • C: control efficacy 89 to 80% • D: control efficacy 79 to 50%

[2] = system: Diamond Back Moth (Plutella xylostella); test: Insecticidal effect on diamond back moth (Test Example 1); conditions: 500 ppm; Chinese cabbage seedling with eggs immersed about 30 seconds; six days after the immersion; 25° C.
Source text: Insecticidal Effect on Diamond Back Moth (Plutella xylostella)
Adult diamond back moths were released and allowed to oviposit on a Chinese cabbage seedling. Two days after the release, the seedling having the eggs deposited thereon was immersed for about 30 seconds in a liquid chemical prepared by diluting a preparation containing each compound listed in Tables 1 to 4 as an active ingredient to adjust the concentration to 500 ppm. After air-dryness, it was allowed to stand in a room thermostatted at 25° C. Six days after the immersion, the hatched insects were counted. The mortality was calculated according to the following equation and the insecticidal effect was judged according to the criterion shown below. The test was carried out with triplicate groups of 10 insects.

[3] = system: Two-Spotted Spider Mite (Tetranychus Urticae); test: Acaricidal effect on two-spotted spider mite (Test Example 3); conditions: 500 ppm; kidney bean leaf disc with female adults sprayed; two days after the treatment; 25° C.
Procedure: Acaricidal Effect on Two-Spotted Spider Mite (Tetranychus Urticae)
A leaf disc with a diameter of 2 cm was made of a kidney bean leaf, placed on wet filter paper, inoculated with female adult two-spotted spider mites, and then uniformly sprayed, on a turntable, with 50 ml of a liquid chemical prepared by diluting a preparation containing each compound listed in Tables 1 to 4 as an active ingredient to adjust the concentration to 500 ppm. After the spraying, the leaf disc was allowed to stand in a room thermostated at 25° C. Two days after the treatment with the preparation, the dead insects were counted and the acaricidal effect was judged according to the criterion shown in Test Example 1. The test was carried out with two replications of 10 insects.

Compound | control efficacy rating [1] | insecticidal effect (mortality rating) [2] | acaricidal effect (mortality rating) [3]
CCCc1cc(C(C(F)(F)F)C(F)(F)F)ccc1NC(=O)c1c(C)nn(C)c1Cl [1-4] | B or higher | B or higher | –
CCC(C)c1cc(C(C(F)(F)F)C(F)(F)F)ccc1NC(=O)c1c(C)nn(C)c1Cl (stereo not shown) [1-8] | B or higher | – | –
Cc1nn(C)c(Cl)c1C(=O)Nc1ccc(C(C(F)(F)F)C(F)(F)F)c2ccccc12 [1-17] | – | B or higher | –
Cc1nn(C)c(Cl)c1C(=O)Nc1ccc(C(C(F)(F)F)C(F)(F)F)cc1-c1ccccc1 [1-20] | – | B or higher | –
Cc1nn(C)c(Cl)c1C(=O)Nc1ccc(C(F)(C(F)(F)F)C(F)(F)F)cc1C(C)C(C)C (stereo not shown) [1-21] | – | B or higher | –
CCCC(C)c1cc(C(C(F)(F)F)C(F)(F)F)ccc1NC(=O)c1c(C)nn(C)c1Cl (stereo not shown) [1-22] | – | – | B or higher
CCCC(C)c1cc(C(C(F)(F)F)C(F)(F)F)ccc1NC(=O)c1c(C)nn(C)c1C (stereo not shown) [1-25] | B or higher | – | B or higher
CCCC(C)c1cc(C(OC)(C(F)(F)F)C(F)(F)F)ccc1NC(=O)c1c(C)nn(C)c1C (stereo not shown) [1-26] | – | B or higher | B or higher
CC(C)CC(C)c1cc(C(F)(C(F)(F)F)C(F)(F)F)ccc1NC(=O)c1cn(C)nc1C(F)(F)F (stereo not shown) [1-28] | – | B or higher | –
CC(C)CC(C)c1cc(C(C(F)(F)F)C(F)(F)F)ccc1NC(=O)c1cn(C(F)F)nc1C(F)(F)F (stereo not shown) [1-33] | – | B or higher | –
Cc1nn(C)cc1C(=O)Nc1ccc(C(C(F)(F)F)C(F)(F)F)cc1C(C)CC(C)C (stereo not shown) [1-34] | – | – | B or higher
CCc1nn(C)cc1C(=O)Nc1ccc(C(C(F)(F)F)C(F)(F)F)cc1C(C)CC(C)C (stereo not shown) [1-35] | B or higher | B or higher | –
CC(C)CC(C)c1cc(C(C(F)(F)F)C(F)(F)F)ccc1NC(=O)c1cn(C)nc1Br (stereo not shown) [1-39] | – | – | B or higher
CC(C)CC(C)c1cc(C(C(F)(F)F)C(F)(F)F)ccc1NC(=O)c1cn(C)nc1I (stereo not shown) [1-40] | – | – | B or higher
CSc1nn(C)cc1C(=O)Nc1ccc(C(C(F)(F)F)C(F)(F)F)cc1C(C)CC(C)C (stereo not shown) [1-41] | B or higher | B or higher | –
CC(C)CC(C)c1cc(C(C(F)(F)F)C(F)(F)F)ccc1NC(=O)c1cnn(C)c1S(C)(=O)=O (stereo not shown) [1-48] | – | B or higher | –
CCn1ncc(C(=O)Nc2ccc(C(C(F)(F)F)C(F)(F)F)cc2C(C)CC(C)C)c1Cl (stereo not shown) [1-51] | – | – | B or higher
CC(C)CC(C)c1cc(C(C(F)(F)F)C(F)(F)F)ccc1NC(=O)c1cnn(C)c1I (stereo not shown) [1-56] | – | B or higher | –
CCn1ncc(C(=O)Nc2ccc(C(C(F)(F)F)C(F)(F)F)cc2C(C)CC(C)C)c1I (stereo not shown) [1-57] | – | B or higher | –
Cc1nn(C)c(F)c1C(=O)Nc1ccc(C(C(F)(F)F)C(F)(F)F)cc1C(C)CC(C)C (stereo not shown) [1-65] | B or higher | B or higher | B or higher
Cc1nn(C)c(Cl)c1C(=O)Nc1ccc(C(F)(C(F)(F)F)C(F)(F)F)cc1C(C)CC(C)C (stereo not shown) [1-70] | – | B or higher | –
CCOC(c1ccc(NC(=O)c2c(C)nn(C)c2Cl)c(C(C)CC(C)C)c1)(C(F)(F)F)C(F)(F)F (stereo not shown) [1-73] | – | B or higher | –
CCn1nc(C)c(C(=O)Nc2ccc(C(C(F)(F)F)C(F)(F)F)cc2C(C)CC(C)C)c1Cl (stereo not shown) [1-78] | – | – | B or higher
Cc1nn(C)c(Br)c1C(=O)Nc1ccc(C(C(F)(F)F)C(F)(F)F)cc1C(C)CC(C)C (stereo not shown) [1-81] | B or higher | – | B or higher
COC(c1ccc(NC(=O)c2c(C)nn(C)c2Br)c(C(C)CC(C)C)c1)(C(F)(F)F)C(F)(F)F (stereo not shown) [1-82] | – | B or higher | B or higher

Compound | control efficacy rating [1] | insecticidal effect (mortality rating) [2] | acaricidal effect (mortality rating) [3]
Cc1nn(C)c(I)c1C(=O)Nc1ccc(C(C(F)(F)F)C(F)(F)F)cc1C(C)CC(C)C (stereo not shown) [1-87] | B or higher | – | –
COC(c1ccc(NC(=O)c2c(C(F)(F)F)nn(C)c2Cl)c(C(C)CC(C)C)c1)(C(F)(F)F)C(F)(F)F (stereo not shown) [1-104] | – | – | B or higher
Cc1nn(C)c(C)c1C(=O)Nc1ccc(C(C(F)(F)F)C(F)(F)F)cc1C(C)CC(C)C (stereo not shown) [1-107] | – | B or higher | –
CCCn1nc(C)c(C(=O)Nc2ccc(C(C(F)(F)F)C(F)(F)F)cc2C(C)CC(C)C)c1C (stereo not shown) [1-119] | – | – | B or higher
CCc1nn(C)c(Cl)c1C(=O)Nc1ccc(C(C(F)(F)F)C(F)(F)F)cc1C(C)CC(C)C (stereo not shown) [1-132] | – | B or higher | B or higher
CCCCC(C)c1cc(C(C(F)(F)F)C(F)(F)F)ccc1NC(=O)c1c(C)nn(C)c1Cl (stereo not shown) [1-143] | – | B or higher | B or higher
Cc1nn(C)c(Cl)c1C(=O)Nc1ccc(C(F)(C(F)(F)F)C(F)(F)F)cc1C(C)CCC(C)C (stereo not shown) [1-145] | – | B or higher | –
Cc1nn(C)c(C)c1C(=O)Nc1ccc(C(F)(C(F)(F)F)C(F)(F)F)c(C)c1C [1-163] | – | B or higher | –
Cc1nn(C)c(C)c1C(=O)Nc1ccc(C(C(F)(F)F)C(F)(F)F)c(C)c1C [1-164] | – | B or higher | –
CC(C)CC(C)c1cc(C(C(F)(F)F)C(F)(F)F)ccc1NC(=O)c1ncc(Cl)cc1Cl (stereo not shown) [3-2] | – | B or higher | –
CC(C)CC(C)c1cc(C(C(F)(F)F)C(F)(F)F)ccc1NC(=O)c1cnccc1C(F)(F)F (stereo not shown) [3-3] | – | B or higher | –
CC(C)CC(C)c1cc(C(C(F)(F)F)C(F)(F)F)ccc1NC(=O)c1cccnc1Cl (stereo not shown) [3-4] | – | B or higher | –
Cc1nnsc1C(=O)Nc1ccc(C(F)(C(F)(F)F)C(F)(F)F)cc1C(C)CC(C)C (stereo not shown) [3-10] | – | B or higher | –
Cc1coc(C)c1C(=O)Nc1ccc(C(C(F)(F)F)C(F)(F)F)cc1C(C)CC(C)C (stereo not shown) [3-13] | B or higher | – | B or higher
CC(C)CC(C)c1cc(C(C(F)(F)F)C(F)(F)F)ccc1NC(=O)c1cscc1Br (stereo not shown) [3-21] | – | – | B or higher
CC(C)CC(C)c1cc(C(C(F)(F)F)C(F)(F)F)ccc1NC(=O)c1cccs1 (stereo not shown) [3-27] | B or higher | – | –
Cc1noc(C)c1C(=O)Nc1ccc(C(C(F)(F)F)C(F)(F)F)cc1C(C)CC(C)C (stereo not shown) [3-34] | B or higher | – | –
Cc1c(Cl)c(C(=O)Nc2ccc(C(C(F)(F)F)C(F)(F)F)cc2C(C)CC(C)C)nn1C (stereo not shown) [4-1] | B or higher | B or higher | –
Cc1nn(C)c(C(=O)Nc2ccc(C(C(F)(F)F)C(F)(F)F)cc2C(C)CC(C)C)c1Cl (stereo not shown) [4-4] | – | B or higher | –
Cc1nn(C)c(C(=O)Nc2ccc(C(C(F)(F)F)C(F)(F)F)cc2C(C)CC(C)C)c1Br (stereo not shown) [4-5] | – | B or higher | –
Cc1nn(C)c(Cl)c1C(=O)Nc1ccc(C(C(F)(F)F)C(F)(F)F)cc1C(C)(C)C [Compound No. 1-10] | – | B or higher | –
Cc1nn(C)c(Cl)c1C(=O)Nc1ccc(C(C(F)(F)F)C(F)(F)F)c2c1CCCC2 [Compound No. 1-14] | – | B or higher | –
COC(c1ccc(NC(=O)c2c(C)nn(C)c2C)c(C(C)CC(C)C)c1)(C(F)(F)F)C(F)(F)F (stereo not shown) [Compound No. 1-108, N-{2-(1,3-dimethylbutyl)-4-[1-methoxy-2,2,2-trifluoro-1-(trifluoromethyl)ethyl]-phenyl}-1,3,5-trimethylpyrazole-4-carboxamide] | – | B or higher | –
Cc1nn(C)c(Cl)c1C(=O)Nc1ccc(C(C(F)(F)F)C(F)(F)F)cc1C(C)CCC(C)C (stereo not shown) [Compound No. 1-146, N-{2-(1,4-dimethylpentyl)-4-[2,2,2-trifluoro-1-(trifluoromethyl)ethyl]phenyl}-5-chloro-1,3-dimethylpyrazole-4-carboxamide] | B or higher | B or higher | B or higher
